Tested on: Escherichia coli
Experiment: Survival (viability) of bacteria collected using surfactant-containing solution
Assay type: cell-based
Details: 1% surfactant solution, 20° C.; then capture with 10% cationic graft polymer; one hundredth of suspension cultured 37° C. 18 hours; Control 1 >5000
Method: Escherichia coli precipitated on a separating agent in a blood collection tube is collected while being alive using a non-ionic surfactant-containing solution.
The produced Escherichia coli was added to a physiological saline solution in an amount of 2×10^8 cell/mL, and the resulting mixture was used as a sample.
To a blood collection tube, 3 mL of a bacterial solution in which Escherichia coli was dispersed in a physiological saline solution was added, and was centrifuged at 3000 rpm for five minutes. Thereafter, the supernatant was removed. Subsequently, 0.5 mL of a 1% surfactant solution was added to the blood collection tube, and a bacterial cell precipitated on a surface of a separating agent was dispersed.
The bacterial cell suspension was allowed to stand at 20° C. for 30 minutes and three hours. Thereafter, 100 μL of a 10% cationic graft polymer and 100 μL of a reaction solution were mixed and allowed to react for one minute. Thereafter, the resulting product was centrifuged for 30 seconds by a tabletop small centrifugal machine to obtain a precipitation pellet. The supernatant was removed, and the resulting precipitation pellet was completely dispersed with 500 μL of a dispersion solution to obtain a suspension. One hundredth of the suspension was cultured at 37° C. for 18 hours using a LB bacteria culture agar medium, and the number of living bacteria was confirmed by the number of colonies.
As a control, a physiological saline solution was used in place of the surfactant solution (Control 1).

Compound | the number of colonies, allowed to stand for 30 minutes | the number of colonies, allowed to stand for 3 hours
sucrose laurate | 4000 | 3200
C[C@H](CCC(=O)NCCC[N+](C)(C)CCCS(=O)(=O)[O-])[C@H]1CC[C@H]2[C@@H]3[C@H](O)C[C@@H]4C[C@H](O)CC[C@]4(C)[C@H]3C[C@H](O)[C@]12C [CHAPS] | 84 | 61

— patent US10252258B2, “Method for separating and concentrating target substance using novel cationic graft polymer” (priority 2014, dated 2019)
